≈ marks a conversion by molar mass, not a printed value.
Legend:
[1] = tested on: super sensitive Gram-negative Escherichia coli (E. coli) BAS849; assay: Antibacterial activity, microbroth dilution MIC, E. coli BAS849; assay type: cell-based; settings: Escherichia coli; E. coli BAS849, microbroth dilution; read-out: MIC, BAS849
[2] = tested on: control Gram-negative E. coli 25922 strain; assay: Antibacterial activity, microbroth dilution MIC, E. coli 25922; assay type: cell-based, Escherichia coli; settings: Escherichia coli; E. coli 25922, microbroth dilution; read-out: MIC, 25922
[3] = tested on: Gram-positive Staphylococcus aureus (S. aureus) 29213; assay: Antibacterial activity, microbroth dilution MIC, S. aureus 29213; assay type: cell-based; settings: Staphylococcus aureus; S. aureus 29213, microbroth dilution; read-out: MIC, 29213
[4] = tested on: quinolone resistant E. coli LZ3111; assay: Antibacterial activity, MIC, quinolone resistant E. coli LZ3111; assay type: cell-based, Escherichia coli; settings: Escherichia coli, read-out: MIC, LZ3111
Source text: (§1) The antibacterial activity from a microbroth dilution method may be presented as the minimum inhibitory concentration (MIC in […]). The MIC value is the lowest concentration of a drug which prevents macroscopically visible bacterial growth under test conditions.
Mutations in these regions are known to confer a high level resistance to the quinolone class of antibiotics.

[5] = tested on: Acinetobacter baumannii (A. baumannii) BAA747; assay: Antibacterial activity, MIC, A. baumannii BAA747; assay type: cell-based; settings: Acinetobacter baumannii; A. baumannii BAA747; read-out: MIC BAA747
[6] = tested on: Klebsiella pneumoniae (K. pneumoniae) 35657; assay: Antibacterial activity, MIC, K. pneumoniae 35657; assay type: cell-based; settings: Klebsiella pneumoniae
[7] = tested on: resistant A. baumannii MXX2240 (MDR clinical isolate); assay: Antibacterial activity, MIC, resistant A. baumannii MXX2240; assay type: cell-based, Acinetobacter baumannii; settings: Acinetobacter baumannii, resistant A. baumannii MMX2240, MDR clinical isolate; read-out: MIC MMX2240
[8] = tested on: resistant K. pneumoniae MXX1232 (MDR clinical isolate); assay: Antibacterial activity, MIC, resistant K. pneumoniae MXX1232; assay type: cell-based, Klebsiella pneumoniae; settings: Klebsiella pneumoniae; resistant K. pneumoniae MMX1232, MDR clinical isolate; read-out: MIC MMX1232
[9] = tested on: Pseudomonas aeruginosa (P. aeruginosa) 27853; assay: Antibacterial activity, MIC, P. aeruginosa 27853; assay type: cell-based; settings: Pseudomonas aeruginosa, P. aeruginosa 27853; read-out: MIC 27853
Source text: as §1
Antibacterial activity of test compounds against the Gram-negative bacterium Pseudomonas aeruginosa (P. aeruginosa) 27853 is shown in Table 5.

[10] = tested on: E. coli ELZ4000 (MDR clinical isolate); assay: Antibacterial activity, MIC, MDR E. coli ELZ4000; assay type: cell-based, Escherichia coli; settings: Escherichia coli; E. coli ELZ4000, MDR clinical isolate; read-out: MIC ELZ4000
[11] = tested on: E. coli ELZ4251 (MDR clinical isolate); assay: Antibacterial activity, MIC, MDR E. coli ELZ4251; assay type: cell-based, Escherichia coli; settings: Escherichia coli, E. coli ELZ4251, MDR clinical isolate; read-out: MIC ELZ4251
[12] = tested on: Haemophilus influenzae (H. influenzae) 49247; assay: Antibacterial activity, MIC, H. influenzae 49247; assay type: cell-based; settings: Haemophilus influenzae; H. influenzae 49247; read-out: MIC 49247
Summary of the method: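 A microbroth dilution method gave the minimum inhibitory concentration for each compound against H. influenzae 49247, a Gram-negative bacterium. MIC means the smallest concentration of drug at which no macroscopically visible bacterial growth appears under the conditions of the test.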

[13] = tested on: Moraxella catarrhalis (M. catarrhalis) 25238; assay: Antibacterial activity, MIC, M. catarrhalis 25238; assay type: cell-based; settings: Moraxella catarrhalis, M. catarrhalis 25238; read-out: MIC 25238
[14] = tested on: Neisseria meningitidis (N. meningitidis) 13090; assay: Antibacterial activity, MIC, N. meningitidis 13090; assay type: cell-based; settings: Neisseria meningitidis; N. meningitidis 13090; read-out: MIC 13090

In the case of `CCc1c(-c2cnc(N(C)C)nc2)[nH]c(=O)c(C(=O)O)c1O` [Cpd 20, 6-[2-(dimethylamino)pyrimidin-5-yl]-5-ethyl-4-hydroxy-2-oxo-1,2-dihydropyridine-3-carboxylic acid], the MIC [1] was 12.5 to 150 µg/mL (≈ 41.1 to 493 µM), the MIC [2] was 12.5 to 150 µg/mL (≈ 41.1 to 493 µM) and the MIC [3] was 12.5 to 150 µg/mL (≈ 41.1 to 493 µM). For the same compound, the MIC [4] was 3.5 to 12.5 µg/mL (≈ 11.5 to 41.1 µM), the MIC [5] was 12.5 to 150 µg/mL (≈ 41.1 to 493 µM) and the MIC [6] was 12.5 to 150 µg/mL (≈ 41.1 to 493 µM). For the same compound, the MIC [7] was 3.5 to 12.5 µg/mL (≈ 11.5 to 41.1 µM), the MIC [8] was 12.5 to 150 µg/mL (≈ 41.1 to 493 µM) and the MIC [9] was 12.5 to 150 µg/mL (≈ 41.1 to 493 µM).

`CCc1c(-c2ccc(OC)cc2)[nH]c(=O)c(C(=O)O)c1O` [Cpd 25, 5-ethyl-4-hydroxy-6-(4-methoxyphenyl)-2-oxo-1,2-dihydropyridine-3-carboxylic acid] was tested, and the MIC [1] was under 1 µg/mL, the MIC [2] was 3.5 to 12.5 µg/mL (≈ 12.1 to 43.2 µM) and the MIC [3] was 12.5 to 150 µg/mL (≈ 43.2 to 519 µM). It also gave an MIC [4] of 12.5 to 150 µg/mL (≈ 43.2 to 519 µM), an MIC [10] of 12.5 to 150 µg/mL (≈ 43.2 to 519 µM) and an MIC [11] of 12.5 to 150 µg/mL (≈ 43.2 to 519 µM). For the same compound, the MIC [5] was 3.5 to 12.5 µg/mL (≈ 12.1 to 43.2 µM), the MIC [7] was 1 to 3.5 µg/mL (≈ 3.46 to 12.1 µM) and the MIC [8] was 12.5 to 150 µg/mL (≈ 43.2 to 519 µM).

Work on `CCc1cc(C(=O)O)c(=O)[nH]c1-c1ccc(N(C)C)c(F)c1` [Cpd 93, 6-[4-(dimethylamino)-3-fluorophenyl]-5-ethyl-2-oxo-1,2-dihydropyridine-3-carboxylic acid] yielded an MIC [1] of under 1 µg/mL, an MIC [2] of 12.5 to 150 µg/mL (≈ 41.1 to 493 µM) and an MIC [3] of 12.5 to 150 µg/mL (≈ 41.1 to 493 µM). The MIC [4] was 12.5 to 150 µg/mL (≈ 41.1 to 493 µM), the MIC [10] was 12.5 to 150 µg/mL (≈ 41.1 to 493 µM) and the MIC [11] was 12.5 to 150 µg/mL (≈ 41.1 to 493 µM). For the same compound, the MIC [5] was 12.5 to 150 µg/mL (≈ 41.1 to 493 µM), the MIC [6] was 12.5 to 150 µg/mL (≈ 41.1 to 493 µM) and the MIC [9] was 12.5 to 150 µg/mL (≈ 41.1 to 493 µM). For the same compound, the MIC [12] was under 1 µg/mL, the MIC [13] was under 1 µg/mL and the MIC [14] was under 1 µg/mL.

`CCc1c(-c2ccc(N(C)C)c(F)c2)[nH]c(=O)c(C(=O)O)c1O` [Cpd 94, 6-[4-(dimethylamino)-3-fluorophenyl]-5-ethyl-4-hydroxy-2-oxo-1,2-dihydropyridine-3-carboxylic acid] was tested, and the MIC [1] was under 1 µg/mL, the MIC [2] was 12.5 to 150 µg/mL (≈ 39 to 468 µM) and the MIC [3] was 12.5 to 150 µg/mL (≈ 39 to 468 µM). It also gave an MIC [4] of 12.5 to 150 µg/mL (≈ 39 to 468 µM), an MIC [10] of 12.5 to 150 µg/mL (≈ 39 to 468 µM) and an MIC [11] of 12.5 to 150 µg/mL (≈ 39 to 468 µM). The MIC [5] was 12.5 to 150 µg/mL (≈ 39 to 468 µM), the MIC [6] was 12.5 to 150 µg/mL (≈ 39 to 468 µM) and the MIC [9] was 12.5 to 150 µg/mL (≈ 39 to 468 µM). The MIC [12] was under 1 µg/mL, the MIC [13] was under 1 µg/mL and the MIC [14] was under 1 µg/mL.

For `CCc1c(-c2ccc(N3CC[C@@H](O)C3)cc2)[nH]c(=O)c(C(=O)O)c1O` [Cpd 124, 5-ethyl-4-hydroxy-6-{4-[(3R)-3-hydroxypyrrolidin-1-yl]phenyl}-2-oxo-1,2-dihydropyridine-3-carboxylic acid], the MIC [1] was under 1 µg/mL, the MIC [2] was under 1 µg/mL and the MIC [3] was 1 to 3.5 µg/mL (≈ 2.9 to 10.2 µM). It also gave an MIC [4] of 12.5 to 150 µg/mL (≈ 36.3 to 436 µM), an MIC [10] of 12.5 to 150 µg/mL (≈ 36.3 to 436 µM) and an MIC [11] of 12.5 to 150 µg/mL (≈ 36.3 to 436 µM). It also gave an MIC [5] of under 1 µg/mL, an MIC [7] of 12.5 to 150 µg/mL (≈ 36.3 to 436 µM) and an MIC [8] of 12.5 to 150 µg/mL (≈ 36.3 to 436 µM). For the same compound, the MIC [12] was under 1 µg/mL, the MIC [13] was under 1 µg/mL and the MIC [14] was under 1 µg/mL.

In the case of `CCc1c(-c2ccc(N3CCC(O)C3)cc2)[nH]c(=O)c(C(=O)O)c1O` (stereo not shown) [Cpd 126, 5-ethyl-4-hydroxy-6-[4-(3-hydroxypyrrolidin-1-yl)phenyl]-2-oxo-1,2-dihydropyridine-3-carboxylic acid], the MIC [1] was under 1 µg/mL, the MIC [2] was under 1 µg/mL and the MIC [3] was 1 to 3.5 µg/mL (≈ 2.9 to 10.2 µM). For the same compound, the MIC [4] was 12.5 to 150 µg/mL (≈ 36.3 to 436 µM), the MIC [10] was 12.5 to 150 µg/mL (≈ 36.3 to 436 µM) and the MIC [11] was 12.5 to 150 µg/mL (≈ 36.3 to 436 µM). It also gave an MIC [5] of under 1 µg/mL, an MIC [7] of 12.5 to 150 µg/mL (≈ 36.3 to 436 µM) and an MIC [8] of 12.5 to 150 µg/mL (≈ 36.3 to 436 µM). The MIC [9] was 3.5 to 12.5 µg/mL (≈ 10.2 to 36.3 µM), the MIC [12] was under 1 µg/mL and the MIC [13] was under 1 µg/mL. The MIC [14] was under 1 µg/mL.

From US9650395B2, “Antibacterial compounds and methods for use” (PTC Therapeutics, Inc., priority 2011, dated 2017)
